This experiment relates to 32D-mpl cells. The experiment is described as follows: proliferation of 32D-mpl cells. It is filed as cell-based. The method, then:
The compound of Example 1, promoted the proliferation of 32D-mpl cells at a concentration of 0.03 to 30 uM.

We go through one molecule from patent US6875786B2, “Thrombopoietin mimetics” (SmithKline Beecham Corporation, priority 2001, dated 2005).

A word on the EC50: it is the concentration that produces a half-maximal response. Lower therefore signals an effect from little substance.

Take `CC1=NN(c2ccc(C)c(C)c2)C(=O)C1=CNc1cccc(-c2cccc(C(=O)O)c2)c1O` [Example 1, 3′-{[1-(3.4-Dimethylphenyl)-3-methyl-5-oxo-1,5-dihydropyrazol-4-ylidenemethyl]amino}-2′-hydroxybiphenyl-3-carboxylic Acid]: a half-maximal response (EC50) required 670 nM. Besides, the “% TPOmax” value (relative to TPO maximum) is 85%.
